Measurements published in patent publication US20090029992A1, “SUBSTITUTED PYRAZOLE COMPOUNDS” (priority 2007, published 2009).

Legend:
Assay type in all cases: biochemical
[1] = biological target: T1, N-terminal GST-tagged recombinant human Flt3, residues 564-end (Homo sapiens, UniProt P36888); test: Flt3 kinase inhibition assay (33P-ATP filter assay); details: 40 minutes at room temperature
T1 construct: recombinant human Flt3, residues 564-end; GST (N); purchased Upstate USA Inc, 706 Forest Street, Charlottesville, Va
T1 sequence (P36888 564-993 limits assumed): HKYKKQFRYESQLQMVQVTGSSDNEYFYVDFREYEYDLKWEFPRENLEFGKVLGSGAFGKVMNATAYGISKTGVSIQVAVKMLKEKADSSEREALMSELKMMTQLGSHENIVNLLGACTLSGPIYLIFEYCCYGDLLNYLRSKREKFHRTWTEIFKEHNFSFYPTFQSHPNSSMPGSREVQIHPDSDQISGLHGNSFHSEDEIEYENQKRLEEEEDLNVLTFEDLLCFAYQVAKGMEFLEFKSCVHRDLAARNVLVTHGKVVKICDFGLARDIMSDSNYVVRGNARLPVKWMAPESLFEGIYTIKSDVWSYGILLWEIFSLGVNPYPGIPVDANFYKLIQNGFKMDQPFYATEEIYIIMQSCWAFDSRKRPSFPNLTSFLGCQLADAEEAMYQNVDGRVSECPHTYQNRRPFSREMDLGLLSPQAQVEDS
Summary of the method: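 Serial compound dilutions incubated 40 min at room temperature with 5-10 mU Flt3 kinase, 50 μM peptide substrate and [γ-33P]ATP/10 mM magnesium acetate, pH 7.0. Phosphoric acid stop, filter capture and scintillation counting; activity compared with uninhibited reactions.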

recombinant Aurora A = biological target: T2, recombinant Aurora A (Homo sapiens, UniProt O14965); test: Aurora A (Aurora 2) inhibition assay, Z'-Lyte kinase assay; details: ATP 10 μM, 1 h
T2 construct: purchased Upstate, Lake Placid, N.Y
T2 sequence (O14965 1-403): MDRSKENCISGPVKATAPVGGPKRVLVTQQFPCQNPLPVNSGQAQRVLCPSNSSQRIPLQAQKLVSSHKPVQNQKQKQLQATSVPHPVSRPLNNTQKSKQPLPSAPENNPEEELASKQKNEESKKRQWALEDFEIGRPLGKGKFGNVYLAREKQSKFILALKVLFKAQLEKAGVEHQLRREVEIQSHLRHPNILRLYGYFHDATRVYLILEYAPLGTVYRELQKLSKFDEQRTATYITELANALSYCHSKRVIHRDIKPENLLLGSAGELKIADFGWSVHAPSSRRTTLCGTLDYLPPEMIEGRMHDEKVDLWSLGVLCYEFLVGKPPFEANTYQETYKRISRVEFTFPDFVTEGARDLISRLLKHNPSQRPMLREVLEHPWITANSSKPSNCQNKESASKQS
Procedure: Compounds were tested for their potency against recombinant Aurora A (Upstate, Lake Placid, N.Y.) using the PanVera Z′-Lyte kinase assay kit—Ser/Thr 1 peptide (Invitrogen, Carlsbad, Calif.). Assays were carried out in kinase assay buffer (50 mM HEPES, pH 7.5, 10 mM MgCl2, 5 mM EGTA, 0.05% Brij-35, 2 mM DTT). Test compounds were initially dissolved in DMSO at 100× the highest tested concentration, then serially diluted to 4× test concentrations in kinase assay buffer. Next, Aurora A (final concentration 200-500 ng/mL), Z′-Lyte Ser/Thr 1 peptide (final concentration 2 μM) and ATP (final concentration 10 μM) were added according to the manufacturer's instructions. Assays were carried out in half-area 96-well white polystyrene assay plates (Corning, Corning, N.Y.) in a final volume of 20 μl. The reaction was allowed to proceed for 1 h at room temperature in the dark, at which point the development reagent and stop reagent were added according to the manufacturer's instructions. Coumarin (Ex. 400 nm, Em. 465 nm) and fluorescein (Ex. 400 nm, Em. 565 nm) fluorescence values were measured on a SpectraFluor Plus plate reader (Tecan, Durham, N.C.). The emission ratio (coumarin/fluorescein) was determined and used to calculate the percent phosphorylation for each well. Wells containing substrate but no kinase and wells containing a phosphopeptide control were used to set 0% and 100% phosphorylation values, respectively. Typically 20-40% of the substrate was phosphorylated in wells without inhibitor. Dose-response curves of relative Aurora A activity vs. inhibitor concentration were plotted with Grafit (Erithacus Software, Horley, Surrey, UK).

[2] = biological target: T3, N-terminal His6-tagged recombinant human KDR, residues 790-end (Homo sapiens, UniProt P35968); test: KDR kinase inhibition assay (33P-ATP filter assay)
T3 construct: recombinant human KDR, residues 790-end; His6 (N); purchased Upstate USA Inc, 706 Forest Street, Charlottesville, Va
T3 sequence (P35968 790-1356 limits assumed): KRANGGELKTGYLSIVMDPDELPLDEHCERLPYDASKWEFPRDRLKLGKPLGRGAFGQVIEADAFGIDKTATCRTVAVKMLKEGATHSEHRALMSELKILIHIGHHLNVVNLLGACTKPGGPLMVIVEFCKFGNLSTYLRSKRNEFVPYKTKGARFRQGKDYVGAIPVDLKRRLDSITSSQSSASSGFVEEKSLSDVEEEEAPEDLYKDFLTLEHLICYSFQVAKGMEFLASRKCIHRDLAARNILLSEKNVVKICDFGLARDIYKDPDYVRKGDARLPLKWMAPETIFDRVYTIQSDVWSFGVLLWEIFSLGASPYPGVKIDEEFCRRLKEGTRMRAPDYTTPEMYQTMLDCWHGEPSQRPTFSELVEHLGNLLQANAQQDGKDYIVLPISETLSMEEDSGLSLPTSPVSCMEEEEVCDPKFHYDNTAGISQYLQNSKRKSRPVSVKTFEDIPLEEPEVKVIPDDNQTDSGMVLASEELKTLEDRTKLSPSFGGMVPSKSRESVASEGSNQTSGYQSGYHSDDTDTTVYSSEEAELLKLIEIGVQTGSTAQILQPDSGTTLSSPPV
Summary of the method: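 His6-tagged human KDR (residues 790-end, 5-10 mU) with 0.33 mg/mL myelin basic protein in 8 mM MOPS pH 7.0, 0.2 mM EDTA, 10 mM magnesium acetate and [γ-33P]ATP; 40 min at room temperature. Stopped with phosphoric acid, filter-bound 33P counted; inhibition relative to no-inhibitor controls.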

[3] = group with IC50 greater than 100 nM

Row | IC50 [1] | IC50 (recombinant Aurora A) | IC50 ([2]; 40 minutes at room temperature) | IC50 [2, 3] | IC50 (recombinant Aurora A; [3]) | Compound
1 | ≤ 100 nM | ≤ 100 nM | ≤ 100 nM | – | – | COc1cc(OC)cc(-c2nc(Nc3cc(C)[nH]n3)cc(N3CCN(C)CC3)n2)c1 [Example 191, 2-(3,5-dimethoxyphenyl)-N-(5-methyl-1H-pyrazol-3-yl)-6-(4-methylpiperazin-1-yl)pyrimidin-4-amine]
2 | ≤ 100 nM | ≤ 100 nM | ≤ 100 nM | – | – | Cc1cc(Nc2cc(NC3CCOCC3)nc(-c3ccc4c(c3)OCO4)n2)n[nH]1 [Example 132, 2-(benzo[d][1,3]dioxol-5-yl)-N^4-(5-methyl-1H-pyrazol-3-yl)-N^6-(tetrahydro-2H-pyran-4-yl)pyrimidine-4,6-diamine]
3 | ≤ 100 nM | ≤ 100 nM | – | ≤ 1000 nM | – | Cc1cc(Nc2cc(N3CCN(C)CC3)nc(-c3cccc(OCc4ccccc4)c3)n2)n[nH]1 [Example 188, 2-(3-(benzyloxy)phenyl)-N-(5-methyl-1H-pyrazol-3-yl)-6-(4-methylpiperazin-1-yl)pyrimidin-4-amine]
4 | ≤ 100 nM | – | – | ≤ 1000 nM | ≤ 1000 nM | Cc1cc(Nc2cc(N(C)CCN(C)C)nc(-c3cccc4ccoc34)n2)n[nH]1 [Example 205, 2-(benzofuran-7-yl)-N^4-(2-(dimethylamino)ethyl)-N^4-methyl-N^6-(5-methyl-1H-pyrazol-3-yl)pyrimidine-4,6-diamine]
5 | ≤ 100 nM | ≤ 100 nM | ≤ 100 nM | – | – | Cc1cc(Nc2cc(NC3CCOCC3)nc(-c3cccc(N(C)C)c3)n2)n[nH]1 [Compound 74, 2-(3-(dimethylamino)phenyl)-N^4-(5-methyl-1H-pyrazol-3-yl)-N^6-(tetrahydro-2H-pyran-4-yl)pyrimidine-4,6-diamine]
6 | ≤ 100 nM | ≤ 100 nM | ≤ 100 nM | – | – | COCCN(C)c1cc(Nc2cc(C)[nH]n2)nc(-c2ccccc2)n1 [Example 171, N^4-(2-methoxyethyl)-N^4-methyl-N^6-(5-methyl-1H-pyrazol-3-yl)-2-phenyl pyrimidine-4,6-diamine]
7 | ≤ 100 nM | ≤ 100 nM | ≤ 100 nM | – | – | Cc1cc(Nc2cc(NC3CCOCC3)nc(-c3cc(F)ccc3F)n2)n[nH]1 [Example 185, 2-(2,5-difluorophenyl)-N^4-(5-methyl-1H-pyrazol-3-yl)-N^6-(tetrahydro-2H-pyran-4-yl)pyrimidine-4,6-diamine]
8 | ≤ 100 nM | ≤ 100 nM | ≤ 100 nM | – | – | CC(=O)c1cccc(-c2nc(Nc3cc(C)[nH]n3)cc(N3CCN(C)CC3)n2)c1 [Example 165, 1-(3-(4-(5-methyl-1H-pyrazol-3-ylamino)-6-(4-methylpiperazin-1-yl)pyrimidin-2-yl)phenyl)ethanone]
9 | ≤ 100 nM | ≤ 100 nM | ≤ 100 nM | – | – | COc1cccc(-c2nc(Nc3cc(C)[nH]n3)cc(N3CCN(C)CC3)n2)c1 [Compound 42, 2-(3-methoxyphenyl)-N-(5-methyl-1H-pyrazol-3-yl)-6-(4-methylpiperazin-1-yl)pyrimidin-4-amine]
10 | ≤ 100 nM | ≤ 100 nM | ≤ 100 nM | – | – | Cc1cc(Nc2cc(NC3CCOCC3)nc(-c3cc4ccccc4o3)n2)n[nH]1 [Compound 15, 2-(benzofuran-2-yl)-N^4-(tetrahydro-2H-pyran-4-yl)-N^6-(5-methyl-1H-pyrazol-3-yl)-pyrimidine-4,6-diamine]
11 | ≤ 100 nM | ≤ 100 nM | ≤ 100 nM | – | – | Cc1cc(Nc2cc(N3CCN(C)CC3)nc(-c3ccc(Cl)cc3)n2)n[nH]1 [Compound 35, 2-(4-chlorophenyl)-N-(5-methyl-1H-pyrazol-3-yl)-6-(4-methylpiperazin-1-yl)pyrimidin-4-amine]
12 | ≤ 100 nM | ≤ 100 nM | ≤ 100 nM | – | – | Cc1cc(Nc2cc(N3CCN(C)CC3)nc(-c3cccc([N+](=O)[O-])c3)n2)n[nH]1 [Example 162, N-(5-methyl-1H-pyrazol-3-yl)-6-(4-methylpiperazin-1-yl)-2-(3-nitrophenyl)pyrimidin-4-amine]
13 | ≤ 100 nM | ≤ 100 nM | ≤ 100 nM | – | – | Cc1cc(Nc2cc(N3CCN(C)CC3)nc(-c3cc4ccccc4n3C)n2)n[nH]1 [Compound 2, 2-(1-methyl-1H-indol-2-yl)-N-(5-methyl-1H-pyrazol-3-yl)-6-(4-methylpiperazin-1-yl)pyrimidin-4-amine]
14 | ≤ 100 nM | ≤ 100 nM | ≤ 100 nM | – | – | COc1cccc(-c2nc(Nc3cc(C)[nH]n3)cc(NC3CCOCC3)n2)c1 [Compound 29, 2-(3-methoxyphenyl)-N^4-(5-methyl-1H-pyrazol-3-yl)-N^6-(tetrahydro-2H-pyran-4-yl)pyrimidine-4,6-diamine]
15 | ≤ 100 nM | – | – | ≤ 1000 nM | ≤ 1000 nM | Cc1cc(Nc2cc(N3CCN(C)CC3)nc(-c3ccco3)n2)n[nH]1 [Compound 14, 2-(furan-2-yl)-N-(5-methyl-1H-pyrazol-3-yl)-6-(4-methylpiperazin-1-yl)-pyrimidin-4-amine]
16 | ≤ 100 nM | ≤ 100 nM | – | ≤ 1000 nM | – | Cc1cc(Nc2cc(N3CCN(C)CC3)nc(-c3cccc(C(F)(F)F)c3)n2)n[nH]1 [Compound 101, N-(5-methyl-1H-pyrazol-3-yl)-6-(4-methylpiperazin-1-yl)-2-(3-(trifluoromethyl)phenyl)pyrimidin-4-amine]
17 | ≤ 100 nM | ≤ 100 nM | ≤ 100 nM | – | – | Cc1cc(Nc2cc(N3CCN(C)CC3)nc(-c3cccc(Cl)c3)n2)n[nH]1 [Compound 36, 2-(3-chlorophenyl)-N-(5-methyl-1H-pyrazol-3-yl)-6-(4-methylpiperazin-1-yl)pyrimidin-4-amine]
18 | ≤ 100 nM | – | – | – | ≤ 1000 nM | Cc1cc(Nc2cc(N3CCN(C)CC3)nc(-c3ccc([N+](=O)[O-])cc3)n2)n[nH]1 [Example 164, N-(5-methyl-1H-pyrazol-3-yl)-6-(4-methylpiperazin-1-yl)-2-(4-nitrophenyl)pyrimidin-4-amine]
19 | ≤ 100 nM | ≤ 100 nM | – | – | – | Cc1cc(Nc2cc(N3CCN(C)CC3)nc(-c3cc(F)cc(F)c3)n2)n[nH]1 [Example 170, 2-(3,5-difluorophenyl)-N-(5-methyl-1H-pyrazol-3-yl)-6-(4-methylpiperazin-1-yl)pyrimidin-4-amine]
20 | ≤ 100 nM | ≤ 100 nM | – | – | – | Cc1cc(Nc2cc(N3CCN(C)CC3)nc(-c3cccc(N(C)C)c3)n2)n[nH]1 [Compound 86, 2-(3-(dimethylamino)phenyl)-N-(5-methyl-1H-pyrazol-3-yl)-b-(4-methylpiperazin-1-yl)pyrimidin-4-amine]
21 | ≤ 100 nM | – | – | – | ≤ 1000 nM | Cc1cc(Nc2cc(NC3CCOCC3)nc(-c3ccc(-c4ccccc4)cc3)n2)n[nH]1 [Example 158, 2-(biphenyl-4-yl)-N^4-(5-methyl-1H-pyrazol-3-yl)-N^6-(tetrahydro-2H-pyran-4-yl)pyrimidine-4,6-diamine]
